Experimental data: patent US12227501B2, “3-amino-2-[2-(acylamino)pyridin-4-yl]-1,5,6,7-tetrahydro-4h-pyrrolo[3,2-c]pyridin-4-one as CSNK1 inhibitors” (Bayer Aktiengesellschaft, priority 2019, dated 2025)
Like-named read-outs stand apart in the source and are kept apart here.

Experiments:
Format in all cases: biochemical
[1] = molecular target: T1, human CSNK1A1 (Homo sapiens (Human), UniProt P48729); assay: CSNK1A1 Assay 2 (ADP-Glo, 1 μM ATP); conditions: substrate biotin-Ahx-KRRRAL-pS-VASLPGL, read-out: CSNK1A1 Assay 2 IC50 [mol/l] (median)
In short: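 Full-length human CSNK1A1 as an N-terminal GST fusion (baculovirus/insect cells) with biotinylated peptide substrate biotin-Ahx-KRRRAL-pS-VASLPGL and 1 μM ATP, in HEPES pH 7.5 buffer. Compounds were pre-incubated with enzyme (~0.0375 ng/μL) for 15 min at 22 °C. Generated ADP was read by ADP-Glo luminescence as the activity measure.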

[2] = molecular target: wild-type Epidermal Growth Factor Receptor (EGFR) (Homo sapiens (Human), UniProt P00533); assay: WT-EGFR Kinase Assay (TR-FRET, 2 mM ATP)
[3] = molecular target: human CSNK1D (Homo sapiens (Human), UniProt P48730); assay: CSNK1D Assay (ADP-Glo, 1 μM ATP); conditions: read-out: CSNK1D IC50 [mol/l] (median)
In short: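 Activity is read as ADP produced, by ADP-Glo luminescence after 1 h steps at 22 °C. The reaction uses 1 μM ATP, a biotinylated peptide and insect-cell-expressed GST–CSNK1D (about 0.5 ng/μL) in pH 7.5 HEPES buffer, with 15 min compound–enzyme preincubation.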

[4] = molecular target: T1, human CSNK1A1; assay: CSNK1A1 High ATP Assay (ADP-Glo, 1 mM ATP); conditions: read-out: CSNK1A1 high ATP assay IC50 [mol/l] (median)
In short: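 Kinase activity taken as ADP generated, quantified by ADP-Glo luminescence after 1 h ATP depletion and 1 h detection at 22 °C. Enzyme is GST–full-length human CSNK1A1 (insect cell-expressed), pre-bound to compound for 15 min, with phosphopeptide substrate and 1 mM ATP.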

[5] = read-out: EGFR Wildtyp- 2 mM ATP IC50 [mol/l] (median)
[6] = EGFR Wildtyp- 2 mM ATP IC50 [mol/l] (median)

Sequence of human CSNK1D (P48730 whole entry): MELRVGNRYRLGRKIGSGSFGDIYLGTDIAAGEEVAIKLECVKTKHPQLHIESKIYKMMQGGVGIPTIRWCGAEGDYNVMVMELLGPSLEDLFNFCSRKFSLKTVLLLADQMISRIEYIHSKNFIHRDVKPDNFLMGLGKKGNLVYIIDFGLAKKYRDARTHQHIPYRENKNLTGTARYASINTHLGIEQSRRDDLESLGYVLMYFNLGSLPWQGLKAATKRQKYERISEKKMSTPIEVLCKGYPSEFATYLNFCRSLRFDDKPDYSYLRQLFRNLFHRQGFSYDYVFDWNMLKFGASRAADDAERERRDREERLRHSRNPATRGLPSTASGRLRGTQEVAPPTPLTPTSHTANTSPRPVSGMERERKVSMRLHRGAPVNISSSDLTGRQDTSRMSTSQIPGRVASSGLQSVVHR
Sequence of wild-type Epidermal Growth Factor Receptor (EGFR) (P00533 669-1210): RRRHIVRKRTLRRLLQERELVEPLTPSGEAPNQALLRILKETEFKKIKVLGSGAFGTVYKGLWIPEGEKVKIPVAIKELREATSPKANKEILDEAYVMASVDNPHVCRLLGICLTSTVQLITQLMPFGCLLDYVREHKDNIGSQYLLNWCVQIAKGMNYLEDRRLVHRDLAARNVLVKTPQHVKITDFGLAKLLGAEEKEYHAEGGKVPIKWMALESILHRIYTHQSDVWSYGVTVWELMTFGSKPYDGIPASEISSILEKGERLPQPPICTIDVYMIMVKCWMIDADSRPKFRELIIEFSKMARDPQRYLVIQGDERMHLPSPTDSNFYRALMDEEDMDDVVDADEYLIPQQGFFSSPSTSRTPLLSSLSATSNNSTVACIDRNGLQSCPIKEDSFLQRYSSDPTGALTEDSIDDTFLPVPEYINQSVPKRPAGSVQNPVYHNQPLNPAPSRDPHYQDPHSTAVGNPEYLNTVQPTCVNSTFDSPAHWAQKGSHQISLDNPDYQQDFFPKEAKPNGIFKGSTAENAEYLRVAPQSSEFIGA
T1 sequence (P48729 whole entry, the tested form may be a part): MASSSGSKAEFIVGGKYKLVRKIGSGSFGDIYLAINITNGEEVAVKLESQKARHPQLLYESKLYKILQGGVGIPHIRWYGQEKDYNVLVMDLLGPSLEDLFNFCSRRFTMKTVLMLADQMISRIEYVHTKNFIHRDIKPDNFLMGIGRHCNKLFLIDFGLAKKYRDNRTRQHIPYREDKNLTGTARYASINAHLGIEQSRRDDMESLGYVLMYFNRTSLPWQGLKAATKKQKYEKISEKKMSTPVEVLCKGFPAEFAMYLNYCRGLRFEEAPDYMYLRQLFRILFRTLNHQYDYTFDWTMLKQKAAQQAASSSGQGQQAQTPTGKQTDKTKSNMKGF

Row | Structure (SMILES) | IC50 [1] | IC50 [2, 5] | IC50 [3] | IC50 [4] | IC50 [2, 6]
1 | Cc1ccccc1Nc1c(-c2ccnc(NC(=O)C(CC(F)F)c3ccc(F)cc3)c2)[nH]c2c1C(=O)NC(C)(C)C2 (single isomer, unassigned; enantiomer 2) [Example 137, N-{4-[6,6-dimethyl-3-(2-methylanilino)-4-oxo-4,5,6,7-tetrahydro-1H-pyrrolo[3,2-c]pyridin-2-yl]pyridin-2-yl}-4,4-difluoro-2-(4-fluorophenyl)butanamide (Enantiomer 2)] | 42.2 nM | > 20000 nM | 82.7 nM | 451 nM | 
2 | CN1CCc2[nH]c(-c3ccnc(NC(=O)C(CC(F)F)c4ccc(F)cc4)c3)c(Nc3ccccc3)c2C1=O (single isomer, unassigned; (+)) [Example 63, (+)-N-[4-(3-anilino-5-methyl-4-oxo-4,5,6,7-tetrahydro-1H-pyrrolo[3,2-c]pyridin-2-yl)pyridin-2-yl]-4,4-difluoro-2-(4-fluorophenyl)butanamide] | 2.12 nM |  | 4 nM | 12.1 nM | 6680 nM
3 | CC(C(=O)Nc1cc(-c2[nH]c3c(c2Nc2ccccc2)C(=O)N(C)C2(CCC2)C3)ccn1)c1ccc(F)cc1 (racemic) [Example 157, N-[4-(3′-anilino-5′-methyl-4′-oxo-1′,4′,5′,7′-tetrahydrospiro[cyclobutane-1,6′-pyrrolo[3,2-c]pyridin]-2′-yl)pyridin-2-yl]-2-(4-fluorophenyl)propanamide (Racemate)] | 8.76 nM |  | 15.8 nM | 50.8 nM | > 20000 nM
4 | CC(C(=O)Nc1cc(-c2[nH]c3c(c2Nc2ccccc2)C(=O)N(C)C(C)C3)ccn1)c1ccc(F)cc1 (single isomer, unassigned; (+)) [Example 91, (+)-(2RS)—N-{4-[(6R*)-3-anilino-5,6-dimethyl-4-oxo-4,5,6,7-tetrahydro-1H-pyrrolo[3,2-c]pyridin-2-yl]pyridin-2-yl}-2-(4-fluorophenyl)propanamide] | 4.73 nM |  | 8.83 nM | 693 nM | > 20000 nM
5 | CN1C(=O)c2c([nH]c(-c3ccnc(NC(=O)C(CC(F)F)c4ccc(F)cc4)c3)c2Nc2ccccc2)CC12CCC2 (single isomer, unassigned; enantiomer 2) [Example 162, (+)-N-[4-(3′-anilino-5′-methyl-4′-oxo-1′,4′,5′,7′-tetrahydrospiro[cyclobutane-1,6′-pyrrolo[3,2-c]pyridin]-2′-yl)pyridin-2-yl]-4,4-difluoro-2-(4-fluorophenyl)butanamide (Enantiomer 2)] | 60.2 nM | > 20000 nM | 52.9 nM | 61.4 nM | 
6 | CN1CCc2[nH]c(-c3ccnc(NC(=O)Cc4ccccn4)c3)c(Nc3ccccc3)c2C1=O [Example 115, N-[4-(3-anilino-5-methyl-4-oxo-4,5,6,7-tetrahydro-1H-pyrrolo[3,2-c]pyridin-2-yl)pyridin-2-yl]-2-(pyridin-2-yl)acetamide] | 2.41 nM | 3670 nM | 5.09 nM | 248 nM | 
7 | CC(C(=O)Nc1cc(-c2[nH]c3c(c2Nc2ccccc2)C(=O)N(C)C(C)C3)ccn1)c1ccc(F)cc1 (single isomer, unassigned; (-)) [Example 93, (−)-N-{4-[3-anilino-5,6-dimethyl-4-oxo-4,5,6,7-tetrahydro-1H-pyrrolo[3,2-c]pyridin-2-yl]pyridin-2-yl}-2-(4-fluorophenyl)propanamide] | 47.2 nM |  | 47.3 nM | 3180 nM | > 20000 nM
8 | O=C(Cc1ccc(F)cc1)Nc1cc(-c2[nH]c3c(c2Nc2ccccc2)C(=O)NC2(CC2)C3)ccn1 [Example 146, N-[4-(3′-anilino-4′-oxo-1′,4′,5′,7′-tetrahydrospiro[cyclopropane-1,6′-pyrrolo[3,2-c]pyridin]-2′-yl)pyridin-2-yl]-2-(4-fluorophenyl)acetamide] | 1.38 nM | 667 nM | 6.28 nM | 5.04 nM | 
9 | O=C1NC2(CCC2)Cc2[nH]c(-c3ccnc(NC(=O)C(CC(F)F)c4ccc(F)cc4)c3)c(Nc3cccc(F)c3Cl)c21 (single isomer, unassigned; enantiomer 1) [Example 124, (−)-N-{4-[3′-(2-chloro-3-fluoroanilino)-4′-oxo-1′,4′,5′,7′-tetrahydrospiro[cyclobutane-1,6′-pyrrolo[3,2-c]pyridin]-2′-yl]pyridin-2-yl}-4,4-difluoro-2-(4-fluorophenyl)butanamide (Enantiomer 1)] | 74.6 nM |  | 58.7 nM | > 5710 nM | > 20000 nM
10 | CC(C(=O)Nc1cc(-c2[nH]c3c(c2Nc2ccccc2Cl)C(=O)NCC3)ccn1)c1ccc(F)cc1 (stereo not shown) [Example 14, N-{4-[3-(2-chloroanilino)-4-oxo-4,5,6,7-tetrahydro-1H-pyrrolo[3,2-c]pyridin-2-yl]pyridin-2-yl}-2-(4-fluorophenyl)propanamide] | 4.96 nM | > 20000 nM | 14 nM | 73.9 nM | 
11 | O=C1NC2(CC2)Cc2[nH]c(-c3ccnc(NC(=O)C(CC(F)F)c4ccc(F)cc4)c3)c(Nc3ccccc3)c21 (racemic) [Example 147, N-[4-(3′-anilino-4′-oxo-1′,4′,5′,7′-tetrahydrospiro[cyclopropane-1,6′-pyrrolo[3,2-c]pyridin]-2′-yl)pyridin-2-yl]-4,4-difluoro-2-(4-fluorophenyl)butanamide (Racemate)] | 6.2 nM |  | 11.6 nM | 19.2 nM | 268 nM
12 | CC(C(=O)Nc1cc(-c2[nH]c3c(c2Nc2ccccc2)C(=O)NCC3)ccn1)c1ccc(F)cc1 (single isomer, unassigned) [Example 10, N-[4-(3-anilino-4-oxo-4,5,6,7-tetrahydro-1H-pyrrolo[3,2-c]pyridin-2-yl)pyridin-2-yl]-2-(4-fluorophenyl)propanamide] | 4.61 nM |  | 14 nM | 25.5 nM | 12400 nM
13 | O=C(Cc1ccc(F)cc1)Nc1cc(-c2[nH]c3c(c2Nc2cccc(F)c2Cl)C(=O)NCC3)ccn1 [Example 87, N-{4-[3-(2-chloro-3-fluoroanilino)-4-oxo-4,5,6,7-tetrahydro-1H-pyrrolo[3,2-c]pyridin-2-yl]pyridin-2-yl}-2-(4-fluorophenyl)acetamide] | 2.57 nM | 158 nM | 6.02 nM | 64.7 nM | 
14 | CN1CCc2[nH]c(-c3ccnc(NC(=O)Cc4ccc(F)c(F)c4)c3)c(Nc3ccccc3)c2C1=O [Example 83, N-[4-(3-anilino-5-methyl-4-oxo-4,5,6,7-tetrahydro-1H-pyrrolo[3,2-c]pyridin-2-yl)pyridin-2-yl]-2-(3,4-difluorophenyl)acetamide] | 3.03 nM | 2920 nM | 7.3 nM | 61.4 nM | 
15 | Cc1cc(CC(=O)Nc2cc(-c3[nH]c4c(c3Nc3ccccc3)C(=O)N(C)CC4)ccn2)ccn1 [Example 85, N-[4-(3-anilino-5-methyl-4-oxo-4,5,6,7-tetrahydro-1H-pyrrolo[3,2-c]pyridin-2-yl)pyridin-2-yl]-2-(2-methylpyridin-4-yl)acetamide] | 1.78 nM | 937 nM | 3.36 nM | 26.5 nM | 
16 | CC1(C)Cc2[nH]c(-c3ccnc(NC(=O)Cc4ccncc4)c3)c(Nc3ccccc3)c2C(=O)N1 [Example 51, N-[4-(3-anilino-6,6-dimethyl-4-oxo-4,5,6,7-tetrahydro-1H-pyrrolo[3,2-c]pyridin-2-yl)pyridin-2-yl]-2-(pyridin-4-yl)acetamide] | 4.87 nM | 563 nM | 6.67 nM | 25.8 nM | 
17 | CN1CCc2[nH]c(-c3ccnc(NC(=O)C(CC(F)F)c4ccc(F)cc4)c3)c(Nc3ccccc3)c2C1=O (single isomer, unassigned; (-)) [Example 62, (−)-N-[4-(3-anilino-5-methyl-4-oxo-4,5,6,7-tetrahydro-1H-pyrrolo[3,2-c]pyridin-2-yl)pyridin-2-yl]-4,4-difluoro-2-(4-fluorophenyl)butanamide] | 21 nM |  | 29.7 nM | 1500 nM | > 20000 nM
18 | CC1Cc2[nH]c(-c3ccnc(NC(=O)C(CC(F)F)c4ccc(F)cc4)c3)c(Nc3ccccc3F)c2C(=O)N1C (single isomer, unassigned; (+)) [Example 108, (+)-4,4-difluoro-N-{4-[3-(2-fluoroanilino)-5,6-dimethyl-4-oxo-4,5,6,7-tetrahydro-1H-pyrrolo[3,2-c]pyridin-2-yl]pyridin-2-yl}-2-(4-fluorophenyl)butanamide] | 3.27 nM | > 20000 nM | 4.62 nM | 8.33 nM | 
19 | CN1C(=O)c2c([nH]c(-c3ccnc(NC(=O)C(CC(F)F)c4ccc(F)cc4)c3)c2Nc2ccccc2F)CC1(C)C (single isomer, unassigned) [Example 46, 4,4-difluoro-N-{4-[3-(2-fluoroanilino)-5,6,6-trimethyl-4-oxo-4,5,6,7-tetrahydro-1H-pyrrolo[3,2-c]pyridin-2-yl]pyridin-2-yl}-2-(4-fluorophenyl)butanamide] | 6.64 nM |  | 8.33 nM | 119 nM | > 20000 nM
